# Source: patent US20210179680A1, “POLYPEPTIDE, DERIVATIVES THEREOF, AND APPLICATION THEREOF IN PREPARATION OF DRUGS HAVING RESISTANCE TO PULMONARY FIBROSIS” (priority 2016, published 2021)
# Bridge positions count the residues as written; N and C are the ends. Square brackets hold non-standard residues; d marks the D form. Peptide text beside a SMILES is read from it. S5 = C=CCCC[C@](C)(N)C(=O)O
# Legend:
# [1] = molecular target: T1, TRB3 protein (Homo sapiens, UniProt Q96RU7); assay: Surface plasmon resonance (Biacore T200) binding of polypeptides to TRB3 protein; settings: SPR, FIG. 4-1, 4-2 and Table 1
# T1 construct: purchased RD
# T1 sequence (Q96RU7 1-358): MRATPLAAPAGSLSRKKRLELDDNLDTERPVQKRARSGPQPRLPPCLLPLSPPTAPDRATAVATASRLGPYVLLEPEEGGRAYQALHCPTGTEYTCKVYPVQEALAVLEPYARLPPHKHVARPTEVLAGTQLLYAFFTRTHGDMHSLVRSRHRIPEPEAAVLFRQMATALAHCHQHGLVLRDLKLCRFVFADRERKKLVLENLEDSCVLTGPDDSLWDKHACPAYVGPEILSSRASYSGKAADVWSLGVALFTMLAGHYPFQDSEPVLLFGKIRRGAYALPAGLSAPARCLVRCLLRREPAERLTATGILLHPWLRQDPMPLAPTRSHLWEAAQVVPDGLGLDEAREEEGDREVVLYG
# Description: The surface plasmon resonance experiment was carried out in a surface plasmon resonator Biacore T200, and the procedure was carried out in accordance with the instructions of the plasma resonator Biacore T200. Specific steps are as follows:
# 1. Purified TRB3 protein (purchased from RD) was coupled to a CMS chip (purchased from GE) by amidogen, and the unbound protein was eluted at a flow rate of 10 μL/min. The surface of the chip was equilibrated for 2 hours. Among them, the specific steps of amidogen coupling, elution and equilibration refer to the relevant instruction of GE's CMS chip.
# 2. 250 μL of the S1-S11 and MR2 polypeptide fragments prepared in Example 1 with different concentrations (800, 400, 200, 50, 12.5, 6.25, and 3.125 nM) were automatically injected, and the entire surface plasmon resonance experiment was carried out at 25° C. The buffer used was HBS-EP buffer [0.01 M HEPES, 0.15 M NaCl, 3 mM EDTA and 0.005% (w/w) surfactant TWEEN20]. Biacore T200's built-in analysis software was used to simulate the binding curves of different concentrations of peptides to TRB3.
# [2] = tested on: mice with bleomycin-induced pulmonary fibrosis; assay: Survival rate of mice with bleomycin-induced pulmonary fibrosis; type: in vivo, C57BL/6 mice; settings: Table 3 groups: 2 mg/kg i.p., 10th to 28th day after modeling, twice a week
# Description: (§1) Male C57BL/6 mice were fasted overnight, then anesthetized with 45 mg/kg sodium pentobarbital by injection intraperitoneally (i.p.), and intratracheally injected with bleomycin at a dose of 3 U/kg. The specific operation steps are as follows: cut the neck skin of the mouse with as little trauma as possible, expose the trachea with the assistance of elbow ophthalmic forceps, puncture the trachea and inject about 50 μL of bleomycin into the trachea with a microsyringe, rotate the mouse quickly and stand it upright for 5 minutes in order to make bleomycin evenly enter the left and right lobe, thereby constructing an animal model. The whole operation was performed at a surgical table at about […]. Mice in the sham operation group were intratracheally injected with an equal amount of physiological saline for injection.
# The animal model with pulmonary fibrosis was prepared according to the method described in Example 2. The peptide therapy was started from the 10th day after modeling (the treatment groups are shown in Table 3), and the time was calculated from the 10th day after modeling to count the mortality rate. The death situation of each group of experimental animals was counted and calculated daily. […] The survival rate is the percentage of the number of mice that survived accounting for the number of mice in the whole group. Results are shown in FIG. 6-1, FIG. 6-2 and Table 4. […] In FIG. 6-1 and FIG. 6-2, “##” represents that P value is less than 0.01 when the survival rate of administration group was compared with that of the sham operation group; “*” represents that P value is less than 0.05 when the survival rate of administration group was compared with that of the bleomycin group; “**” represents that P value is less than 0.01 when the survival rate of administration group was compared with that of bleomycin group; and “i.p.” refers to intraperitoneal injection.
# The animal model of pulmonary fibrosis was prepared according to the method described in Example 2. The polypeptide treatment was started from the 10th day after modeling (the treatment groups are shown in Table 9), and the time was calculated from the 10th day after modeling to count the mortality rate. The mortality rate of each group of experimental animals was recorded and calculated daily. If none of the animals in a group died, the survival rate of the group is 100%. If all the animals in a group died, the survival rate is 0%. […] In FIG. 12, “##” represents that P value is less than 0.01 when the survival rate of the administration groups were compared with that of the sham operation group; “*” represents that P value is less than 0.05 and “**” represents that P value is less than 0.01 when the survival rate of the administration groups were compared with bleomycin group.
# [3] = tested on: mice with bleomycin-induced pulmonary fibrosis; assay: Lung weight index in mice with pulmonary fibrosis; type: in vivo, C57BL/6 mice; settings: Table 3 groups, 2 mg/kg i.p.; after 28 days; lung weight (mg) divided by body weight (g)
# Description: as §1
# Pulmonary fibrosis model was prepared according to the method described in Example 2, and administered in groups according to Table 3. After 28 days, the lungs of the mice were finely stripped and weighed, and a lung weight index was obtained from dividing the lung weight (mg) by the body weight (g) of the mice. […] In FIG. 7, “##” represents that P value is less than 0.01 when the lung weight index of administration group was compared with that of the sham operation group; “*” represents that P value is less than 0.05 when the lung weight index of administration group was compared with that of the bleomycin group; “**” represents that P value is less than 0.01 when the lung weight index of administration group was compared with that of bleomycin group.
# Pulmonary fibrosis models were made according to the method described in Example 2 and administered in groups according to Table 9. After 28 days, the lungs of the mice were finely stripped and weighed, and the lung weight (mg) was divided by the body weight (g) of the mice to obtain a lung weight index. […] In FIG. 13, “##” represents that P value is less than 0.01 when the lung weight index of the administration groups were compared with that of the sham operation group; “*” represents that P value is less than 0.05 and “**” represents that P value is less than 0.01 when the lung weight index of the administration groups were compared with bleomycin group.
SMILES,interaction with the TRB3 protein (in words) [1],Survival rate (%) 7 days [2] [%],Survival rate (%) 14 days [2] [%],Survival rate (%) 21 days [2] [%],Survival rate (%) 28 days [2] [%],Lung weight index [3]
"CSCC[C@H](NC(=O)[C@H](CC(C)C)NC(=O)[C@@H](N)Cc1c[nH]cn1)C(=O)N[C@@]1(C)CCCC=CCCC[C@@](C)(C(=O)N[C@@H](C)C(=O)N[C@@H](CCCCN)C(=O)N[C@@H](CCCCN)C(=O)N[C@@H](CC(C)C)C(=O)N[C@@H](CCCCN)C(=O)N[C@@H](CCCCN)C(=O)N[C@@H](CCCNC(=N)N)C(=O)O)NC(=O)[C@H]([C@@H](C)O)NC(=O)[C@H](Cc2ccccc2)NC(=O)[C@H](CS)NC1=O [S4, His-Leu-Met-S5-Cys-Phe-Thr-S5-Ala-Lys-Lys-Leu-Lys-Lys-Arg] (H-HLM[S5]CFT[S5]AKKLKKR-OH; staple 4-8; N-terminus and C-terminus assumed)",interacted with the TRB3 protein,100,86.67,80,80,8.925
"CSCC[C@H](NC(=O)[C@H](CC(C)C)NC(=O)[C@@H](N)Cc1c[nH]cn1)C(=O)N[C@@H](C)C(=O)N[C@@]1(C)CCCC=CCCC[C@@](C)(C(=O)N[C@@H](CCCCN)C(=O)N[C@@H](CCCCN)C(=O)N[C@@H](CC(C)C)C(=O)N[C@@H](CCCCN)C(=O)N[C@@H](CCCCN)C(=O)N[C@@H](CCCNC(=N)N)C(=O)O)NC(=O)[C@H](CS)NC(=O)[C@H]([C@@H](C)O)NC(=O)[C@H](Cc2ccccc2)NC1=O [S5, His-Leu-Met-Ala-S5-Phe-Thr-Cys-S5-Lys-Lys-Leu-Lys-Lys-Arg] (H-HLMA[S5]FTC[S5]KKLKKR-OH; staple 5-9; N-terminus and C-terminus assumed)",interacted with the TRB3 protein,100,100,93.33,93.33,8.575
"CSCC[C@H](NC(=O)[C@H](CC(C)C)NC(=O)[C@@H](N)Cc1c[nH]cn1)C(=O)N[C@@H](C)C(=O)N[C@@H](CS)C(=O)N[C@@]1(C)CCCC=CCCC[C@@](C)(C(=O)N[C@@H](CCCCN)C(=O)N[C@@H](CC(C)C)C(=O)N[C@@H](CCCCN)C(=O)N[C@@H](CCCCN)C(=O)N[C@@H](CCCNC(=N)N)C(=O)O)NC(=O)[C@H](C)NC(=O)[C@H](CS)NC(=O)[C@H]([C@@H](C)O)NC1=O [S6, His-Leu-Met-Ala-Cys-S5-Thr-Cys-Ala-S5-Lys-Leu-Lys-Lys-Arg] (H-HLMAC[S5]TCA[S5]KLKKR-OH; staple 6-10; N-terminus and C-terminus assumed)",interacted with the TRB3 protein,100,86.67,80,80,9.725
"CSCC[C@H](NC(=O)[C@H](CC(C)C)NC(=O)[C@@H](N)Cc1c[nH]cn1)C(=O)N[C@@H](C)C(=O)N[C@@H](CS)C(=O)N[C@@H](Cc1ccccc1)C(=O)N[C@@]1(C)CCCC=CCCC[C@@](C)(C(=O)N[C@@H](CC(C)C)C(=O)N[C@@H](CCCCN)C(=O)N[C@@H](CCCCN)C(=O)N[C@@H](CCCNC(=N)N)C(=O)O)NC(=O)[C@H](CCCCN)NC(=O)[C@H](C)NC(=O)[C@H](CS)NC1=O [S7, His-Leu-Met-Ala-Cys-Phe-S5-Cys-Ala-Lys-S5-Leu-Lys-Lys-Arg] (H-HLMACF[S5]CAK[S5]LKKR-OH; staple 7-11; N-terminus and C-terminus assumed)",interacted with the TRB3 protein,100,100,93.33,93.33,7.675
"CSCC[C@H](NC(=O)[C@H](CC(C)C)NC(=O)[C@@H](N)Cc1c[nH]cn1)C(=O)N[C@@H](C)C(=O)N[C@@H](CS)C(=O)N[C@@H](Cc1ccccc1)C(=O)N[C@H](C(=O)N[C@@]1(C)CCCC=CCCC[C@@](C)(C(=O)N[C@@H](CCCCN)C(=O)N[C@@H](CCCCN)C(=O)N[C@@H](CCCNC(=N)N)C(=O)O)NC(=O)[C@H](CCCCN)NC(=O)[C@H](CCCCN)NC(=O)[C@H](C)NC1=O)[C@@H](C)O [S8, His-Leu-Met-Ala-Cys-Phe-Thr-S5-Ala-Lys-Lys-S5-Lys-Lys-Arg] (H-HLMACFT[S5]AKK[S5]KKR-OH; staple 8-12; N-terminus and C-terminus assumed)",interacted with the TRB3 protein,100,100,93.33,86.67,8.775
"CSCC[C@H](NC(=O)[C@H](CC(C)C)NC(=O)[C@@H](N)Cc1c[nH]cn1)C(=O)N[C@@H](C)C(=O)N[C@@H](CS)C(=O)N[C@@H](Cc1ccccc1)C(=O)N[C@H](C(=O)N[C@@H](CS)C(=O)N[C@@]1(C)CCCC=CCCC[C@@](C)(C(=O)N[C@@H](CCCCN)C(=O)N[C@@H](CCCNC(=N)N)C(=O)O)NC(=O)[C@H](CC(C)C)NC(=O)[C@H](CCCCN)NC(=O)[C@H](CCCCN)NC1=O)[C@@H](C)O [S9, His-Leu-Met-Ala-Cys-Phe-Thr-Cys-S5-Lys-Lys-Leu-S5-Lys-Arg] (H-HLMACFTC[S5]KKL[S5]KR-OH; staple 9-13; N-terminus and C-terminus assumed)",interacted with the TRB3 protein,100,93.33,93.33,93.33,7.4125
